In patent US11292801B2, “Calpain modulators and therapeutic uses thereof” (Blade Therapeutics, Inc., priority 2016, dated 2022):

Key:
Human Calpain 1/NS1 = target: T1, Human Calpain 1/NS1 (Homo sapiens, UniProt P07384); assay: Biochemical inhibition of calpain 1, continuous fluorescence (FRET substrate) assay; conditions: mean, read-out: Human Calpain 1/NS1 IC50 (nM)_MEAN
T1 sequence (P07384 1-714): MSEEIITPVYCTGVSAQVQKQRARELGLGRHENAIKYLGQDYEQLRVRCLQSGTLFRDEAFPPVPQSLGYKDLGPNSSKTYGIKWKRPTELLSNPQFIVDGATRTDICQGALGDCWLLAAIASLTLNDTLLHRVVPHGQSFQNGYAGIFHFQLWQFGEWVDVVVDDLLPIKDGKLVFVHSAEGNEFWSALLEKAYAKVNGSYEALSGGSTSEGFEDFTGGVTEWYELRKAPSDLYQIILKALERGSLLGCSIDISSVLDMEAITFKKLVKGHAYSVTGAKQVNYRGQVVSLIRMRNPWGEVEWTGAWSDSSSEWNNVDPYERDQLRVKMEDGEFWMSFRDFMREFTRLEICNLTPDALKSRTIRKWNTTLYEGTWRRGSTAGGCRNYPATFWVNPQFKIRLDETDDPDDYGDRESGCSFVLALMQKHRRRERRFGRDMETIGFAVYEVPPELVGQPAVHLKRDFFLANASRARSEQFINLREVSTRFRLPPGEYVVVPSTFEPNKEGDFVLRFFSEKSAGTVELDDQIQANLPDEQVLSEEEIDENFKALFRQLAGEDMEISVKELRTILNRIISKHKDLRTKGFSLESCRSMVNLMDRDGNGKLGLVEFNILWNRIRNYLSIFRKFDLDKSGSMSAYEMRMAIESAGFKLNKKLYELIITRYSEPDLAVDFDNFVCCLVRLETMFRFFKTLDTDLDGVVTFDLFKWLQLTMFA
T1 sequence (P04632 1-268 partner): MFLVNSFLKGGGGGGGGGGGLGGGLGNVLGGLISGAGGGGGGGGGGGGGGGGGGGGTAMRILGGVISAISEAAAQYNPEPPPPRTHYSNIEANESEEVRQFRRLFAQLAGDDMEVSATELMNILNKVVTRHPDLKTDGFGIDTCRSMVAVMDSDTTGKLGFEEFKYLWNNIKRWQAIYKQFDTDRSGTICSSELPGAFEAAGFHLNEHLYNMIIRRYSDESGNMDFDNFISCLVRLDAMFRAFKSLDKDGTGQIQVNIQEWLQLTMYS
How it was run: (§1)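 IC50 values come from 4-parameter fits of progress-curve rates (1-5 min slopes) against log inhibitor concentration. Calpain and inhibitor premixed at ambient 25C in Tris pH ~7.5/NaCl/DTT buffer, then CaCl2 and FRET substrate added to activate; 5-FAM fluorescence (ex 490/em 520) followed 10 min.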

Human Calpain 9/NS1 = target: T2, Human Calpain 9/NS1 (Homo sapiens, UniProt O14815); assay: Biochemical inhibition of calpain 9, continuous fluorescence (FRET substrate) assay; conditions: mean, read-out: Human Calpain 9/NS1 IC50 (nM)_MEAN
T2 sequence (O14815 1-690): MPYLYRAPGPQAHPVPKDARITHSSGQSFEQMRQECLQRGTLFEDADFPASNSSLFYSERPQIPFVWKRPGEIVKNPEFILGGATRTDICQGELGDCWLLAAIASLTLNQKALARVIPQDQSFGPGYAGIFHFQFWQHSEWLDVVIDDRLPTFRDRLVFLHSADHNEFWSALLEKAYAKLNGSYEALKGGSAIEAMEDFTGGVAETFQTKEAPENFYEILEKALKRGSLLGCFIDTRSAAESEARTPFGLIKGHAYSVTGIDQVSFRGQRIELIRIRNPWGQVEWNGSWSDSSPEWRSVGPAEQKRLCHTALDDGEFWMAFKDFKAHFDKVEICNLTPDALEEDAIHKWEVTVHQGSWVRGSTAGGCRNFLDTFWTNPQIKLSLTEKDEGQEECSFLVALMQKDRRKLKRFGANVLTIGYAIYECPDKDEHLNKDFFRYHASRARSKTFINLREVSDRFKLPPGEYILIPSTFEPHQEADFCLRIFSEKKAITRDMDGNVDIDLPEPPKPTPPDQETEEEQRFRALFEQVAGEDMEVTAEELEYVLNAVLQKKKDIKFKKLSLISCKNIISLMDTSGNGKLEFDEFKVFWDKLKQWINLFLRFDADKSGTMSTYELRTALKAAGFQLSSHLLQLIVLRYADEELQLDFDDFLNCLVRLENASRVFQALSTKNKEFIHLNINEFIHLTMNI
T2 sequence (P04632 1-268 partner): T1 sequence (P04632 1-268 partner)
How it was run: as §1

Human Calpain 2/NS1 = target: T3, Human Calpain 2/NS1 (Homo sapiens, UniProt P17655); assay: Biochemical inhibition of calpain 2, continuous fluorescence (FRET substrate) assay; conditions: mean, read-out: Human Calpain 2/NS1 IC50 (nM)_MEAN
T3 sequence (P17655 1-700): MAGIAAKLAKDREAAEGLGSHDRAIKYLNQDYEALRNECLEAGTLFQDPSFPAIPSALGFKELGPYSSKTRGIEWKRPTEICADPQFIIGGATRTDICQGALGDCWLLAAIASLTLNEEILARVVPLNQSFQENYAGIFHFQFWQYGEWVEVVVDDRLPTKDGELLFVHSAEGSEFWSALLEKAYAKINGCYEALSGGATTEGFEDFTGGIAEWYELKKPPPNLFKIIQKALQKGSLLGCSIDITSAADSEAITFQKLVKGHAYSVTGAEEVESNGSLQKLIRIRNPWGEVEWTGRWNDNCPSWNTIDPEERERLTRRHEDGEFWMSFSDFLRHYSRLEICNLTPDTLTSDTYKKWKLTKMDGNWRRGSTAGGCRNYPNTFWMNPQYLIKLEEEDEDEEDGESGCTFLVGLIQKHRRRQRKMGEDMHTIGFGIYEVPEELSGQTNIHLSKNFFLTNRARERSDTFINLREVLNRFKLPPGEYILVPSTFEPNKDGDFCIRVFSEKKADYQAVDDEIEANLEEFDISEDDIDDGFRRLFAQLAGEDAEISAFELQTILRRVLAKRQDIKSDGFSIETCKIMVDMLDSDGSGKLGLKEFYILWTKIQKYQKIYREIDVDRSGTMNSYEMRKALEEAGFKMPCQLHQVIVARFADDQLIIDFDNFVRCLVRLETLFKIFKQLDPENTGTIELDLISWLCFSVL
T3 sequence (P04632 1-268 partner): T1 sequence (P04632 1-268 partner)
How it was run: as §1

| SMILES | IC50 (Human Calpain 1/NS1) [nM] | IC50 (Human Calpain 9/NS1) [nM] | IC50 (Human Calpain 2/NS1) [nM] |
| --- | --- | --- | --- |
| O=C[C@@H]1CCCCCOc2ccnc(n2)-c2ccccc2C(=O)N1 [Compound 139, (S)-3-oxo-11-oxa-4-aza-1(2,4)-pyrimidina-2(1,2)-benzena-cycloundecaphane-5-carbaldehyde] | < 3000 | < 3000 | < 3000 |
| O=C[C@@H]1CC=CCOCCn2ccc3cccc(c32)C(=O)N1 [Compound 9] | > 10000 | < 3000 | < 3000 |
| O=C[C@@H]1C/C=C/CCCOc2ccccc2C(=O)N1 [Compound 21, (S)-10-Oxo-3,4,7,8,9,10-hexahydro-2h-benzo[b][1]oxa[5]aza-cyclododecine-8-carbaldehyde] | > 10000 | 3000 to 10000 | 3000 to 10000 |
| O=C[C@@H]1CC=CCOCCCOCc2ccccc2C(=O)N1 [Compound 11, (S)-13-Oxo-1,4,5,7,10,11,12,13-octahydro-3h-benzo[g][1,5]dioxa[10]aza-cyclopentadecine-11-carbaldehyde] | 3000 to 10000 | < 3000 | < 3000 |
| O=C[C@@H]1Cc2ccc(cc2)CCCCc2cccc(c2)-c2ccn(n2)-c2ncccc2C(=O)N1 [Compound 73, (10S,E)-12-oxo-2^1H-11-aza-1(2,3)-pyridina-2(1,3)-pyrazola-3(1,3),8(1,4)-dibenzenacyclododecaphane-10-carbaldehyde] | < 3000 | < 3000 | < 3000 |
| CN1CCN(CCCNC(=O)C(=O)C2CCCCOCCOCc3ccccc3C(=O)N2)CC1 (stereo not drawn) [Compound 105, N-(3-(4-methylpiperazin-1-yl)propyl)-2-oxo-2-(12-oxo-1,3,4,6,7,8,9,10,11,12-decahydrobenzo[f][1,4]dioxa[9]azacyclotetradecin-10-yl)acetamide] | > 10000 | < 3000 | > 10000 |
| CCNC(=O)C(=O)[C@@H]1CCCCCCCCCc2ccccc2C(=O)N1 [Compound 27, (S)—N-ethyl-2-oxo-2-(1-oxo-1,2,3,4,5,6,7,8,9,10,11,12-dodecahydrobenzo[c][1]azacyclotetradecin-3-yl)acetamide] | > 10000 | > 10000 | > 10000 |
| O=C[C@@H]1CC=CCCOc2cccc(c2)-c2ncccc2C(=O)N1 [Compound 37, (S)-11-Oxo-3-oxa-10-aza-1(2,3)-pyridina-2(1,3)-benzenacycloundecaphan-6-ene-9-carbaldehyde] | < 3000 | < 3000 | < 3000 |
| O=C[C@@H]1Cc2ccc(cc2)OCCCCOc2ccc3c(cnn3-c3ncccc3C(=O)N1)c2 [Compound 67, (5S)-3-oxo-1^1H-8,13-dioxa-4-aza-1(1,5)-indazola-2(2,3)-pyridina-7(1,4)-benzenacyclotridecaphane-5-carbaldehyde] | < 3000 | < 3000 | < 3000 |
| O=C(NCCc1ccc(Cl)cc1)C(=O)[C@@H]1CCCCOCCOCc2ccccc2C(=O)N1 [Compound 128, (S)—N-(4-chlorophenethyl)-2-oxo-2-(12-oxo-1,3,4,6,7,8,9,10,11,12-decahydrobenzo[f][1,4]dioxa[9]azacyclotetradecin-10-yl)acetamide] | 3000 to 10000 | < 3000 | < 3000 |
| O=C(NC1CC1)C(=O)[C@@H]1Cc2ccc(cc2)OCCCCOc2ccc3c(cnn3-c3ncccc3C(=O)N1)c2 [Compound 68, N-cyclopropyl-2-oxo-2-((5S)-3-oxo-1^1H-8,13-dioxa-4-aza-1(1,5)-indazola-2(2,3)-pyridina-7(1,4)-benzenacyclotridecaphane-5-yl)acetamide] | < 3000 | < 3000 | < 3000 |
| O=C(NCc1ccccc1)C(=O)[C@@H]1C/C=C/COCCOCc2ccccc2C(=O)N1 [Compound 4, (S,E)-N-benzyl-2-oxo-2-(12-oxo-1,3,4,6,9,10,11,12-octahydrobenzo[f][1,4]dioxa[9]azacyclotetradecin-10-yl)acetamide] | > 10000 | < 3000 | 3000 to 10000 |
